Data on 20 molecules can be found in patent publication US20220033397A1, “PHARMACEUTICAL COMPOUNDS AND THEIR USE AS INHIBITORS OF UBIQUITIN SPECIFIC PROTEASE 19 (USP19)” (ALMAC DISCOVERY LIMITED, priority 2018, published 2022).

Molecules are shown by their SMILES.

The experiment concerns the target T1, Full-length USP19 (Homo sapiens, UniProt O94966).
T1 construct: Full-length USP19 was purchased from Boston Biochem (E-576); purchased Boston Biochem E-576
T1 sequence (O94966 1-1318): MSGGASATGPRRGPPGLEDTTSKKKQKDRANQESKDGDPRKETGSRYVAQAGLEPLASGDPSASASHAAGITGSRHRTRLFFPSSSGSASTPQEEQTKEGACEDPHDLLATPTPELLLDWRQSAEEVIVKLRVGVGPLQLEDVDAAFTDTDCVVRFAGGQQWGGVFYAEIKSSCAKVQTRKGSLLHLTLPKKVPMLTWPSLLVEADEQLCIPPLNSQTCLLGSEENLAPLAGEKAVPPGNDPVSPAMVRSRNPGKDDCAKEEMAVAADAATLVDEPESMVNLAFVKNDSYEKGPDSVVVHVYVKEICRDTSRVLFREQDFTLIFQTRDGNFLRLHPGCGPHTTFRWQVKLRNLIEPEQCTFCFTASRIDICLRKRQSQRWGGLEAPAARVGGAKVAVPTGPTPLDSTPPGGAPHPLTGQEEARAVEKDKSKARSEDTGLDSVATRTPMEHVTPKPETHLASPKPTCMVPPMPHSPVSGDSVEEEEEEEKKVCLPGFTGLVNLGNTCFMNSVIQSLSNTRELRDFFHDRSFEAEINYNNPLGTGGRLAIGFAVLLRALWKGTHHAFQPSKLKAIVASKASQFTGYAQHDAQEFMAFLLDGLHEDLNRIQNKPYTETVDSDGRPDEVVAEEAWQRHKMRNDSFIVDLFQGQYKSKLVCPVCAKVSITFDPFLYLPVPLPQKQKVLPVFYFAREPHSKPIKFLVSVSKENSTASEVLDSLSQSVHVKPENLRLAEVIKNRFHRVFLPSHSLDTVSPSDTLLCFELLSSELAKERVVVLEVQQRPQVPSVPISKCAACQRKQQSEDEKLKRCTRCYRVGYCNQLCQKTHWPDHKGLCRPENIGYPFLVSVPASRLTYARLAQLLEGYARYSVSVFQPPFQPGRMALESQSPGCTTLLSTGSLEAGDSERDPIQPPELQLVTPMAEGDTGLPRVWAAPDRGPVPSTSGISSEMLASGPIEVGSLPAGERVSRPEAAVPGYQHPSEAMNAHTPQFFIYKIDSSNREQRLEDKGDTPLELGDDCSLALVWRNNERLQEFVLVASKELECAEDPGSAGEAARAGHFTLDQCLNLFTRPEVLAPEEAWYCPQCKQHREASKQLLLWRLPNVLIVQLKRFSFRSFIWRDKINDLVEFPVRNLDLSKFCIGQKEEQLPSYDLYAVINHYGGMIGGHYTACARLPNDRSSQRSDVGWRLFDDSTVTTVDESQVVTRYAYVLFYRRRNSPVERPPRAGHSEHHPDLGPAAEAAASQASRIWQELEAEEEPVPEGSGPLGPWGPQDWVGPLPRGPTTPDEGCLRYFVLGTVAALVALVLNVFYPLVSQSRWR
Nature of the experiment: USP19 fluorescence polarisation (FP) homogeneous assay with Ubiquitin-Lys-TAMRA substrate. Type of experiment: biochemical. Conditions: 2.5 nM USP19, 30 min pre-incubation, average of at least two duplicate experiments. The essentials:
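Full-length USP19 preincubated 30 min at RT with inhibitor (200 μM to 2 μM series, 8–18 points) before adding 500 nM Ubiquitin-Lys-TAMRA substrate.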
(In general: Fluorescence polarisation rises when a labelled molecule tumbles more slowly, as on binding a larger partner.)

Broadly, the IC50 is the midpoint of a concentration-inhibition curve. Take `C[C@H](CC(F)(F)F)C(=O)N1CCC(O)(Cn2ccc3nc(N=S(C)(C)=O)ncc3c2=O)C2(CCCC2)C1` (stereo partly drawn) [Example 62, 2-((Dimethyl(oxo)-λ^6-sulfaneylidene)amino)-6-((10-hydroxy-7-((R)-4,4,4-trifluoro-2-methylbutanoyl)-7-azaspiro[4.5]decan-10-yl)methyl)pyrido[4,3-d]pyrimidin-5(6H)-one]: the IC50 fell in the range of 0.5 to 5 µM. Next, `C[C@H](CC(F)(F)F)C(=O)N1CCC(O)(Cn2ccc3nc(N4CCOCC4)ncc3c2=O)C2(CCCC2)C1` (stereo partly drawn) [Example 60, 6-((10-Hydroxy-7-((R)-4,4,4-trifluoro-2-methylbutanoyl)-7-azaspiro[4.5]decan-10-yl)methyl)-2-morpholinopyrido[4,3-d]pyrimidin-5(6H)-one]: 0.5 to 5 µM; `O=C(N1CCC(O)(Cn2cnc3c(cnn3C3CC3)c2=O)C2(CCCC2)C1)N1CCNC[C@H]1c1ccccc1` (stereo partly drawn) [Example 183, 1-Cyclopropyl-5-((10-hydroxy-7-((R)-2-phenylpiperazine-1-carbonyl)-7-azaspiro[4.5]decan-10-yl)methyl)-1,5-dihydro-4H-pyrazolo[3,4-d]pyrimidin-4-one]: less than 0.5 µM; `O=C(N1CC[C@@](O)(Cn2cnc(-c3ccc4c(c3)COC4)cc2=O)C2(CCCC2)C1)N1CCNC[C@H]1c1ccccc1` [Example 347, 6-(1,3-Dihydro-isobenzofuran-5-yl)-3-(((S)-10-hydroxy-7-((R)-2-phenylpiperazine-1-carbonyl)-7-aza-spiro[4.5]decan-10-yl)methyl)pyrimidin-4(3H)-one]: less than 0.5 µM. Next, `O=C(N1CC[C@@](O)(Cn2cnc(-c3ccc(OC4CC4)cc3)cc2=O)C2(CCCC2)C1)N1CCNC[C@H]1c1ccccc1` [Example 350, 6-(4-Cyclo-propoxyphenyl)-3-(((S)-10-hydroxy-7-((R)-2-phenylpipera-zine-1-carbonyl)-7-azaspiro[4.5]decan-10-yl)methyl)pyrimi-din-4(3H)-one]: less than 0.5 µM. As to `C[C@H](CC1CCCCC1)C(=O)N1CCC(O)(CN2CC(CO)CC2=O)C2(CCCC2)C1` (stereo partly drawn) [Example 34, 1-((7-((R)-3-Cyclohexyl-2-methylpropanoyl)-10-hydroxy-7-azaspiro[4.5]decan-10-yl)methyl)-4-(hydroxymethyl)pyrrolidin-2-one], the IC50 was 5 to 50 µM.

With `C[C@H](CC1CCCCC1)C(=O)N1CCC(O)(CN2CCN(S(C)(=O)=O)CC2=O)C2(CCCC2)C1` (stereo partly drawn) [Example 49, 1-((7-((R)-3-Cyclohexyl-2-methylpropanoyl)-10-hydroxy-7-azaspiro[4.5]decan-10-yl)methyl)-4-(methylsulfonyl)piperazin-2-one], the IC50 lay in the range of 0.5 to 5 µM. Under `CN(Cc1ccoc1)C(=O)N1CCC(O)(Cn2cnc(-c3ccccc3)cc2=O)C2(CCCC2)C1` (centres unmarked) [Example 232, N-(Furan-3-ylmethyl)-10-hydroxy-N-methyl-10-((6-oxo-4-phenylpyrimidin-1(6H)-yl)methyl)-7-azaspiro[4.5]decane-7-carboxamide] stands 0.5 to 5 µM. Under `O=C(N1CCC(O)(Cn2cnc(-c3ccccc3)cc2=O)C2(CCCC2)C1)N1CCNCC1C1CC1` (centres unmarked) [Example 275, 3-((7-(2-Cyclopropylpiperazine-1-carbonyl)-10-hydroxy-7-azaspiro[4.5]decan-10-yl)methyl)-6-phenylpyrimidin-4(3H)-one] stands 5 to 50 µM; under `O=C(N1CCC(O)(Cn2cnc3c(cnn3Cc3ccccc3)c2=O)C2(CCCC2)C1)N1CCOC[C@H]1c1ccccc1` (stereo partly drawn) [Example 167, 1-Benzyl-5-((10-hydroxy-7-((R)-3-phenylmorpholine-4-carbonyl)-7-azaspiro[4.5]decan-10-yl)methyl)-1,5-dihydro-4H-pyrazolo[3,4-d]pyrimidin-4-one], 0.5 to 5 µM; under `O=C(N1CC[C@@](O)(Cn2cnc(N3CCCC(F)(F)C3)cc2=O)C2(CCCC2)C1)N1CCNC[C@H]1c1ccccc1` [Example 363, 6-(3,3-Difluoro-piperidin-1-yl)-3-(((S)-10-hydroxy-7-((R)-2-phenylpiperazine-1-carbonyl)-7-azaspiro[4.5]decan-10-yl)methyl)pyrimi-din-4(3H)-one], less than 0.5 µM. Under `CN(C)C(=O)c1cn(CC2(O)CCN(C(=O)N(C)C3CCCCC3)CC23CCCC3)c(=O)cc1-c1ccccc1` (centres unmarked) [Example 89, N-Cyclohexyl-10-((5-(dimethylcarbamoyl)-2-oxo-4-phenylpyridin-1(2H)-yl)methyl)-10-hydroxy-N-methyl-7-azaspiro[4.5]decane-7-carboxamide] stands 5 to 50 µM; under `O=C(NCc1noc(C2CC2)n1)N1CC[C@@](O)(Cn2cnc(-c3ccccc3)cc2=O)C2(CCCC2)C1` [Example 218, (S)—N-((5-Cyclopropyl-1,2,4-oxadiazol-3-yl)methyl)-10-hydroxy-10-((6-oxo-4-phenylpyrimidin-1(6H)-yl)methyl)-7-azaspiro[4.5]decane-7-carboxamide], 5 to 50 µM. In the case of `O=C(NCc1ccccc1)N1CCC(O)(Cn2cnc(-c3ccccc3)cc2=O)C2(CCCC2)C1` (centres unmarked) [Example 193, N-Benzyl-10-hydroxy-10-((6-oxo-4-phenylpyrimidin-1(6H)-yl)methyl)-7-azaspiro[4.5]decane-7-carboxamide], the IC50 is less than 0.5 µM.

In the case of `C[C@H](CC1CCCCC1)C(=O)N1CCC(O)(Cn2cnc3ccc(Cl)cc3c2=O)C2(CCCC2)C1` (stereo partly drawn) [Example 143, 6-Chloro-3-((7-((R)-3-cyclohexyl-2-methylpropanoyl)-10-hydroxy-7-azaspiro[4.5]decan-10-yl)methyl)quinazolin-4(3H)-one], the half-inhibitory concentration (IC50) was less than 0.5 µM. Under `CN(Cc1ccns1)C(=O)N1CCC(O)(Cn2cnc(-c3ccccc3)cc2=O)C2(CCCC2)C1` (centres unmarked) [Example 238, 10-Hydroxy-N-(isothiazol-5-ylmethyl)-N-methyl-10-((6-oxo-4-phenylpyrimidin-1(6H)-yl)methyl)-7-azaspiro[4.5]decane-7-carboxamide] stands 5 to 50 µM; under `C[C@H](CC(F)(F)F)C(=O)N1CCC(O)(CN2Cc3cnccc3C2=O)C2(CCCC2)C1` (stereo partly drawn) [Example 106, 2-((10-Hydroxy-7-((R)-4,4,4-trifluoro-2-methylbutanoyl)-7-azaspiro[4.5]decan-10-yl)methyl)-2,3-dihydro-1H-pyrrolo[3,4-c]pyridin-1-one], 50 to 250 µM. Take `N[C@H]1CCN(C(=O)N2CC[C@@](O)(Cn3cnc(-c4ccccc4)cc3=O)C3(CCCC3)C2)[C@H](c2ccccc2)C1` [Example 396, 3-(((S)-7-((2S,4S)-4-Amino-2-phenyl-piperidine-1-car-bonyl)-10-hydroxy-7-azaspiro[4.5]de-can-10-yl)meth-yl)-6-phenyl-pyrimidin-4(3H)-one]: the IC50 is less than 0.5 µM.

`C[C@H](CC(F)(F)F)C(=O)N1CCC(O)(Cn2ccncc2=O)C2(CCCC2)C1` (stereo partly drawn) [Example 5, 1-((10-Hydroxy-7-((R)-4,4,4-trifluoro-2-methylbutanoyl)-7-azaspiro[4.5]decan-10-yl)methyl)pyrazin-2(1H)-one]: the concentration for half-maximal inhibition (IC50) was in the range of 5 to 50 µM. Next, `O=C(N1CCC(O)(Cn2cnc(-c3ccccc3)cc2=O)C2(CCCC2)C1)N1CCNCC1c1cccnc1` (centres unmarked) [Example 274, 3-((10-Hydroxy-7-(2-(pyridin-3-yl)piperazine-1-carbonyl)-7-azaspiro[4.5]decan-10-yl)methyl)-6-phenylpyrimidin-4(3H)-one]: 0.5 to 5 µM.
